Holding throughout (test): NCI tumour cell line growth inhibition, 48 h
The subject of assay [1] is CAKI-1 renal.
Assay [2] relates to HCC-2998 colon.
Assay [3] relates to HCT-15 colon.
Assay [4] relates to IGROV1 ovarian.
The subject of assay [5] is MALME-3M melanoma.
Assay [6] has as its system MDA-MB-435.
Assay [7] concerns MOLT-4 leukemia.
For assay [8], the system named is NCI-H522 lung.
Assay [9] concerns PC-3 prostate.
Assay [10] concerns SW-620 colon.

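Interpolation was linear, between the two tested concentrations surrounding the appropriate level; five concentrations were tested over 48 hours in 96-well plates. GI50: concentration for 50% inhibition of growth. TGI marks complete inhibition of growth.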 A value given as a limit tells only on which side of the number the result lay.

As for `O=C(CCCc1c[nH]c2ccccc12)NC1CC(=O)c2c(Br)sc(Br)c21` (stereo not given), the GI50 in [1] was 10.2 µM; in assay [2], 2.06 µM; in [3], 3.51 µM; in assay [4], 9.05 µM; in assay [5] it was 16.4 µM; in [6], 17.8 µM. In addition, the GI50 in assay [7] is 10.2 µM; in assay [8] it was 21.1 µM; in assay [9] it was 21 µM; in assay [10], 18.8 µM. The TGI was 31.6 µM in assay [1]; 4.03 µM in assay [2]; 10.9 µM in assay [3]; 40.5 µM in assay [4]; 48 µM in assay [5]; 57.3 µM in assay [6]. Further, the TGI in assay [7] is 55.4 µM; in [8], 52.2 µM; in assay [9], 75.7 µM; in assay [10], 41 µM.

Turning to `O/N=C1\CCc2cc(-c3nc(C4CCNCC4)[nH]c3-c3ccncc3)ccc21`, the GI50 is over 25 µM in assay [1]; over 25 µM in [2]; over 25 µM in assay [3]; over 25 µM in [4]; 3.02 µM in assay [5]; 12.1 µM in assay [6]. Also, the GI50 in assay [7], in assay [8], in assay [9] and in [10] was over 25 µM in each case. Also, the TGI is over 25 µM in [1]; over 25 µM in assay [2]; over 25 µM in [3]; over 25 µM in assay [4]; 12.3 µM in assay [5]; over 25 µM in assay [6]. Besides, the TGI in [7], in [8], in assay [9] and in [10] was over 25 µM each time.

On to `Cc1ccc(S(=O)(=O)NC(CCC(=O)Nc2ccc(Cl)cc2)C(=O)Nc2ccc(Cl)cc2)cc1` (stereo not given), for which the GI50 in assay [1] is 0.473 µM; in assay [2], 1.48 µM; in [3] it was 0.118 µM; in [4], 0.852 µM; in assay [5], 1.82 µM; in [6], 0.169 µM. The GI50 was 0.691 µM in assay [7], 0.496 µM in [8], 0.396 µM in assay [9] and 0.555 µM in [10]. The TGI in assay [1] stood at 8.14 µM; in [2], 7.14 µM; in [3], 7.36 µM; in assay [4], 8.58 µM; in assay [5], 8.27 µM; in assay [6], 9.74 µM. The TGI in [7] stood at 7.66 µM; in [8], 7.01 µM; in assay [9], 6.33 µM; in [10] it was 8.59 µM.

Take `C[C@H]1[C@H](OC(=O)CCC(=O)O)O[C@@H]2O[C@]3(C)CC[C@H]4[C@H](C)CC[C@@H]1[C@@]24OO3`: the GI50 was 0.532 µM in assay [1]; 1.48 µM in assay [2]; 0.107 µM in assay [3]; 1.17 µM in [4]; 0.878 µM in assay [5]; 0.335 µM in assay [6]. Moreover, the GI50 in assay [7] was 0.308 µM; in assay [8] it was 0.365 µM; in assay [9], 0.0886 µM; in [10], 0.282 µM. The TGI in assay [1] turned out to be 36 µM; in assay [2] it was 24 µM; in assay [3] it was 16.1 µM; in assay [4], 5.91 µM; in assay [5] it was 31.6 µM; in [6] it was 13.5 µM. For the same compound, the TGI in [7] was 16.5 µM; in [8], 5.43 µM; in [9], over 100 µM; in assay [10], 17.8 µM.

With `COc1cc2c(cc1OC)C(=O)C(Br)CC2` (stereo not given), the GI50 in assay [1] is 3.56 µM; in assay [2], 11.5 µM; in assay [3], 2.33 µM; in [4], 6.23 µM; in assay [5] it was 3.31 µM; in assay [6], 2.87 µM. Moreover, the GI50 was 3.22 µM in assay [7], 1.57 µM in assay [8], 8.8 µM in [9] and 2.71 µM in [10]. For the same compound, the TGI amounted to 12.4 µM in [1]; 24.5 µM in [2]; 7.37 µM in [3]; 19.7 µM in [4]; 8.18 µM in [5]; 10.4 µM in assay [6]. Moreover, the TGI in assay [7] amounted to 15 µM; in assay [8], 3.17 µM; in [9] it was 23.1 µM; in [10], 6.39 µM.

`O=C1/C(=C\c2ccc(Cl)cc2)CN(C(=S)Nc2ccccc2)C/C1=C\c1ccc(Cl)cc1`: the GI50 in assay [1] is 2.56 µM; in assay [2] it was 0.755 µM; in assay [3], 0.283 µM; in assay [4], 0.953 µM; in assay [5], 2.22 µM; in assay [6] it was 1.09 µM. The GI50 in assay [7] is 1.74 µM; in [8], 1.82 µM; in [9], 0.371 µM; in assay [10], 0.298 µM. Moreover, the TGI in assay [1] is over 29.2 µM; in assay [2], 1.94 µM; in assay [3] it was 3.27 µM; in [4], 2.87 µM; in [5] it was 4.86 µM; in [6] it was 3.01 µM. The TGI in assay [7] is 13.7 µM; in assay [8], 3.84 µM; in assay [9] it was 2.09 µM; in assay [10], 1.04 µM.

With `Cc1cc(NC(=O)C2c3ccccc3C(=O)N(CC(C)C)C2c2cccs2)no1` (stereo not given), the GI50 is 25.6 µM in assay [1]; over 100 µM in assay [2]; 70.6 µM in assay [3]; over 100 µM in assay [4]; over 100 µM in assay [5]; 33.7 µM in assay [6]. Further, the GI50 in assay [7] was 43.1 µM; in [8] it was 52.2 µM; in assay [9], 34.8 µM; in assay [10], over 100 µM. In addition, the TGI in [1], in [2], in assay [3], in assay [4], in assay [5] and in assay [6] was over 100 µM throughout. In addition, the TGI in assay [7], in assay [8], in assay [9] and in [10] was over 100 µM each time.
